Laboratory results as given in PubChem BioAssay (NCI).
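Results reflect a 48-hour exposure of cells in 96-well plates to compound at five concentrations. The concentration for 50% growth inhibition is given as GI50. TGI is the concentration that stops growth completely.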

Key:
Assay in all cases: inhibition of tumour cell growth, NCI panel, 48 h
[1] = test system: OVCAR-5 ovarian
[2] = test system: OVCAR-4 ovarian
[3] = test system: EKVX NSCLC
[4] = test system: SNB-19 CNS
[5] = test system: HCT-15 colon
[6] = test system: SF-268 CNS
[7] = test system: MOLT-4 leukemia
[8] = test system: RPMI-8226 leukemia
[9] = test system: SK-MEL-28 melanoma
[10] = test system: IGROV1 ovarian
[11] = test system: M14 melanoma
[12] = test system: MCF7 breast
[13] = test system: MDA-MB-435
[14] = test system: SF-295 CNS
[15] = test system: SW-620 colon
[16] = test system: OVCAR-8 ovarian
[17] = test system: HCC-2998 colon
[18] = test system: A498 renal
[19] = test system: NCI/ADR-RES ovarian
[20] = test system: SNB-75 CNS
[21] = test system: SF-539 CNS
[22] = test system: HS 578T breast
[23] = test system: SK-OV-3 ovarian
[24] = test system: U251 CNS
[25] = test system: 786-0 renal
[26] = test system: MALME-3M melanoma
[27] = test system: SK-MEL-5 melanoma
[28] = test system: NCI-H522 lung
[29] = test system: SN12C renal
[30] = test system: NCI-H23 lung
[31] = test system: T-47D breast
[32] = test system: HT29 colon
[33] = test system: KM12 colon
[34] = test system: SR leukemia
[35] = test system: LOX IMVI melanoma
[36] = test system: HOP-62 NSCLC
[37] = test system: UO-31 renal
[38] = test system: NCI-H460 lung
[39] = test system: CAKI-1 renal
[40] = test system: UACC-62 melanoma
[41] = test system: COLO 205 colon
[42] = test system: PC-3 prostate
[43] = test system: RXF 393 renal
[44] = test system: HOP-92 NSCLC
[45] = test system: NCI-H226 lung
[46] = test system: BT-549 breast
[47] = test system: MDA-MB-231 breast
[48] = test system: SK-MEL-2 melanoma
[49] = test system: K-562 leukemia
[50] = test system: DU-145 prostate
[51] = test system: ACHN renal
[52] = test system: CCRF-CEM leukemia
[53] = test system: UACC-257 melanoma
[54] = test system: HCT-116 colon
[55] = test system: OVCAR-3 ovarian

`CCOC(=O)N1CCC(N=C2CSc3nnc(-c4cc(C(F)(F)F)cc(C(F)(F)F)c4)n3N2)CC1` showed a GI50 [1] of 1.95 µM, a TGI [1] of 4 µM and a GI50 [2] of 1.86 µM. The TGI [2] was 5.49 µM, the GI50 [3] was 1.77 µM and the TGI [3] was 5.43 µM. It also gave a GI50 [4] of 3.14 µM, a TGI [4] of 11.9 µM and a GI50 [5] of 2.29 µM. The TGI [5] was 5.4 µM, the GI50 [6] was 2.23 µM and the TGI [6] was 4.86 µM. The GI50 [7] was 2.57 µM, the TGI [7] was 5.31 µM and the GI50 [8] was 2.54 µM. It also gave a TGI [8] of 7.11 µM, a GI50 [9] of 1.87 µM and a TGI [9] of 3.75 µM. The GI50 [10] was 1.9 µM, the TGI [10] was 4.79 µM and the GI50 [11] was 1.95 µM. For the same compound, the TGI [11] was 3.54 µM, the GI50 [12] was 2.05 µM and the TGI [12] was 4.98 µM. The GI50 [13] was 1.58 µM, the TGI [13] was 3 µM and the GI50 [14] was 1.51 µM. For the same compound, the TGI [14] was 3.08 µM, the GI50 [15] was 2.09 µM and the TGI [15] was 4.27 µM. It also gave a GI50 [16] of 2.44 µM, a TGI [16] of 6.25 µM and a GI50 [17] of 2.25 µM. For the same compound, the TGI [17] was 4.78 µM, the GI50 [18] was 1.94 µM and the TGI [18] was 5.52 µM. For the same compound, the GI50 [19] was 2.58 µM, the TGI [19] was 8.08 µM and the GI50 [20] was 1.92 µM. The TGI [20] was 5.54 µM, the GI50 [21] was 2.06 µM and the TGI [21] was 3.88 µM. The GI50 [22] was 2.31 µM, the TGI [22] was 6.4 µM and the GI50 [23] was 3.21 µM. For the same compound, the TGI [23] was 8.71 µM, the GI50 [24] was 1.77 µM and the TGI [24] was 3.53 µM. It also gave a GI50 [25] of 2.18 µM, a TGI [25] of 5.21 µM and a GI50 [26] of 1.68 µM. For the same compound, the TGI [26] was 3.31 µM, the GI50 [27] was 1.61 µM and the TGI [27] was 3 µM. The GI50 [28] was 2.27 µM, the TGI [28] was 4.61 µM and the GI50 [29] was 1.7 µM. For the same compound, the TGI [29] was 3.57 µM, the GI50 [30] was 2.66 µM and the TGI [30] was 8.37 µM. For the same compound, the GI50 [31] was 2.6 µM, the TGI [31] was 6.82 µM and the GI50 [32] was 1.97 µM. The TGI [32] was 3.65 µM, the GI50 [33] was 2.04 µM and the TGI [33] was 3.95 µM. It also gave a GI50 [34] of 2.39 µM, a TGI [34] of 6.23 µM and a GI50 [35] of 1.77 µM. The TGI [35] was 3.45 µM, the GI50 [36] was 2.17 µM and the TGI [36] was 4.03 µM. It also gave a GI50 [37] of 1.66 µM, a TGI [37] of 5.4 µM and a GI50 [38] of 2.11 µM. The TGI [38] was 4.1 µM, the GI50 [39] was 2.04 µM and the TGI [39] was 5.97 µM. The GI50 [40] was 1.64 µM, the TGI [40] was 3.36 µM and the GI50 [41] was 2.17 µM. For the same compound, the TGI [41] was 3.93 µM, the GI50 [42] was 2.2 µM and the TGI [42] was 6.27 µM. It also gave a GI50 [43] of 1.57 µM, a TGI [43] of 3.08 µM and a GI50 [44] of 1.97 µM. For the same compound, the TGI [44] was 5 µM, the GI50 [45] was 2.16 µM and the TGI [45] was 5.02 µM. It also gave a GI50 [46] of 1.89 µM, a TGI [46] of 3.79 µM and a GI50 [47] of 1.81 µM. It also gave a TGI [47] of 3.56 µM, a GI50 [48] of 2 µM and a TGI [48] of 3.6 µM. It also gave a GI50 [49] of 2.88 µM, a TGI [49] of 6.92 µM and a GI50 [50] of 2.39 µM. It also gave a TGI [50] of 6.17 µM, a GI50 [51] of 2.53 µM and a TGI [51] of 5.99 µM. It also gave a GI50 [52] of 2.01 µM, a TGI [52] of 5.28 µM and a GI50 [53] of 1.76 µM. It also gave a TGI [53] of 3.81 µM, a GI50 [54] of 1.9 µM and a TGI [54] of 3.7 µM. The GI50 [55] was 2.01 µM and the TGI [55] was 3.59 µM.
